Tests used:
[1] = target: T1, 5-hydroxytryptamine receptor 1F (Homo sapiens, UniProt P30939)
T1 sequence (P30939 whole entry): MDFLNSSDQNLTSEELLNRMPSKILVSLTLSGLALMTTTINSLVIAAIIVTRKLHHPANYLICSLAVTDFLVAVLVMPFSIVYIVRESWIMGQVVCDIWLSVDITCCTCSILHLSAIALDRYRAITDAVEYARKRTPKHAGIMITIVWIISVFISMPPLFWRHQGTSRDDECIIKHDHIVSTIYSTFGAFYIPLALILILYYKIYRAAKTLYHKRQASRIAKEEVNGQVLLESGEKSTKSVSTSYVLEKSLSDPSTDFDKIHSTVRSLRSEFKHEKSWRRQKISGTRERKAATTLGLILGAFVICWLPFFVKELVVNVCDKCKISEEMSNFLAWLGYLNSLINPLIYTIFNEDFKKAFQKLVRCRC

[2] = target: T2, 5-hydroxytryptamine receptor 2C (Homo sapiens, UniProt P28335)
T2 sequence (P28335 whole entry): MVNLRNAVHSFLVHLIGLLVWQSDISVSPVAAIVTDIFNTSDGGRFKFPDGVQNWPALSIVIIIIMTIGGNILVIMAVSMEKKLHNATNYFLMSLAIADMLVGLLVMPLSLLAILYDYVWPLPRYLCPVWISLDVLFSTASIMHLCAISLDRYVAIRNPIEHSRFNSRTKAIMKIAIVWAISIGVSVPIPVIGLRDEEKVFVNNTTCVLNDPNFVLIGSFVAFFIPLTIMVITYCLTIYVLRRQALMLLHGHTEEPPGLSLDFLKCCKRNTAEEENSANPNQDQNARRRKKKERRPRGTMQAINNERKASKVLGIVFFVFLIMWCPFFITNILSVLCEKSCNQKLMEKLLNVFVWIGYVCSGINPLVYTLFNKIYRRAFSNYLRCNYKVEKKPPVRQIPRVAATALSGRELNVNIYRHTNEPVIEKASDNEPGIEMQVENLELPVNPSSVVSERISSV

[3] = target: T3, Alpha-1B adrenergic receptor (Homo sapiens, UniProt P35368)
T3 sequence (P35368 whole entry): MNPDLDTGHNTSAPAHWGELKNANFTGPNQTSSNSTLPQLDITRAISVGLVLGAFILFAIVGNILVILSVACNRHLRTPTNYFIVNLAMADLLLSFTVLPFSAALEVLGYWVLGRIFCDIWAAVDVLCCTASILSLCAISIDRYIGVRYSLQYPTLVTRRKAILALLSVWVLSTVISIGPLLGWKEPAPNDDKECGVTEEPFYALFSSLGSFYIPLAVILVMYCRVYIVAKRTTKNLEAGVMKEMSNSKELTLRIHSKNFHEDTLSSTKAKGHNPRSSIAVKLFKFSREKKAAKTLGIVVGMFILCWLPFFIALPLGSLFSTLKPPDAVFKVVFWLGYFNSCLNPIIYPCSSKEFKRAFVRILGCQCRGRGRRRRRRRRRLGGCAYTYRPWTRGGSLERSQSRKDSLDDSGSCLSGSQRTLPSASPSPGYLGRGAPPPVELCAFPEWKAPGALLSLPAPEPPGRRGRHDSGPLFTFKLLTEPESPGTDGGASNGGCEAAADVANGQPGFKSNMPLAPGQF

[4] = target: 5-hydroxytryptamine receptor 1B (Homo sapiens, UniProt P28222)
5-hydroxytryptamine receptor 1B, sequence (P28222 whole entry): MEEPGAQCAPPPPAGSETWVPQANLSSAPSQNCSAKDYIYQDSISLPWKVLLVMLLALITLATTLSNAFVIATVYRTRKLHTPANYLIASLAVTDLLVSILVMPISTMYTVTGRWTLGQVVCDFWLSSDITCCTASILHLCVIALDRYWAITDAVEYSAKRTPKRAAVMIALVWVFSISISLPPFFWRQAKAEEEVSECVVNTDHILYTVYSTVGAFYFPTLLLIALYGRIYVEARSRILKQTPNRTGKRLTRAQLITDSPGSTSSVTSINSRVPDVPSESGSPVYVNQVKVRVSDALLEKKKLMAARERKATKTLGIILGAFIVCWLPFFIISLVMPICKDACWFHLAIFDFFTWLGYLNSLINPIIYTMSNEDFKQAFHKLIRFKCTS

[5] = target: 5-hydroxytryptamine receptor 7 (Homo sapiens, UniProt P34969)
5-hydroxytryptamine receptor 7, sequence (P34969 whole entry): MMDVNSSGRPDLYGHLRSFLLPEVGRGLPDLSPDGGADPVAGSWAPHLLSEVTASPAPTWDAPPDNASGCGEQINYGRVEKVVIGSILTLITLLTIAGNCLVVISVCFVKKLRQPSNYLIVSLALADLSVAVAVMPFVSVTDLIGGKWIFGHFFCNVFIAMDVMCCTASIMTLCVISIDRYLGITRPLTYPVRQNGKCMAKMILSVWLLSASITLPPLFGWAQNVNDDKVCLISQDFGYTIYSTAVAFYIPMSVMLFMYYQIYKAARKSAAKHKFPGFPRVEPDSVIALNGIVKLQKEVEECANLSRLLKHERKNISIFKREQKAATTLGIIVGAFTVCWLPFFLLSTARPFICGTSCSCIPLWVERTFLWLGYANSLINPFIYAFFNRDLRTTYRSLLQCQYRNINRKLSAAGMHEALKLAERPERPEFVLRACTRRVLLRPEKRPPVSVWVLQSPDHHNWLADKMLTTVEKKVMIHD

[6] = target: 5-hydroxytryptamine receptor 2A (Homo sapiens, UniProt P28223)
5-hydroxytryptamine receptor 2A, sequence (P28223 whole entry): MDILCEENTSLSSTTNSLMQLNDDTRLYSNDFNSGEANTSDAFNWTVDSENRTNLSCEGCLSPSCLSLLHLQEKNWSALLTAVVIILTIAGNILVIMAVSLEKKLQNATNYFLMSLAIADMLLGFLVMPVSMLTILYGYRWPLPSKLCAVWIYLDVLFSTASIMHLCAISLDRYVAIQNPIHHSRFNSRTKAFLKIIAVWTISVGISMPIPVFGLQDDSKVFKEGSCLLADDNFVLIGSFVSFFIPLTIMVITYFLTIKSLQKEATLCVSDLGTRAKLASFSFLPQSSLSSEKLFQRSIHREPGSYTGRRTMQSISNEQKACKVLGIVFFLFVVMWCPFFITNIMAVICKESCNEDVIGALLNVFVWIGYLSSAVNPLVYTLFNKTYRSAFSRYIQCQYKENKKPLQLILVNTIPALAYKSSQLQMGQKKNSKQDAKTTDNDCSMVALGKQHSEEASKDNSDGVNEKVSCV

[7] = target: D(3) dopamine receptor (Homo sapiens, UniProt P35462)
D(3) dopamine receptor, sequence (P35462 as listed by the source): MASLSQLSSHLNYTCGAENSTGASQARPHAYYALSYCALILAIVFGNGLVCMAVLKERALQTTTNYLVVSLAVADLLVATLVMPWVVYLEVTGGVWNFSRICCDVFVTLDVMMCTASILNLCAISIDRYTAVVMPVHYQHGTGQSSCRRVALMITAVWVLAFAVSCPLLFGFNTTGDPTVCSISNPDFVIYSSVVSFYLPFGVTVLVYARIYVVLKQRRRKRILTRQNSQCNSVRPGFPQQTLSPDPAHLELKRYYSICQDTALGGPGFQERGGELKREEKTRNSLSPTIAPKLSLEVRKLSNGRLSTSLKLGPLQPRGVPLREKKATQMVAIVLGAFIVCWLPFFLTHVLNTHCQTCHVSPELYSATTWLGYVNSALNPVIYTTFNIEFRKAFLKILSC

[8] = target: 5-hydroxytryptamine receptor 1E (Homo sapiens, UniProt P28566)
5-hydroxytryptamine receptor 1E, sequence (P28566 whole entry): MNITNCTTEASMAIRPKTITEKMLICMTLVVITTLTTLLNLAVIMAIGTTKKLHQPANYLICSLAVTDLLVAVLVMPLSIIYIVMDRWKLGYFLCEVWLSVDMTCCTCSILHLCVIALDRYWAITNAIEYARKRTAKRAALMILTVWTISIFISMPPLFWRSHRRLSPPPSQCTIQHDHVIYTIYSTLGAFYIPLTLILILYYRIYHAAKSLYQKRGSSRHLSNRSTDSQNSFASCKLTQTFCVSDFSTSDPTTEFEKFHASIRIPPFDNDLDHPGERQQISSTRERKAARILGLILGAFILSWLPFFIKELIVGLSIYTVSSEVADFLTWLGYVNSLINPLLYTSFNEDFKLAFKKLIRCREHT

[9] = target: 5-hydroxytryptamine receptor 4 (Sus scrofa, UniProt Q29006)
5-hydroxytryptamine receptor 4, sequence (Q29006 whole entry): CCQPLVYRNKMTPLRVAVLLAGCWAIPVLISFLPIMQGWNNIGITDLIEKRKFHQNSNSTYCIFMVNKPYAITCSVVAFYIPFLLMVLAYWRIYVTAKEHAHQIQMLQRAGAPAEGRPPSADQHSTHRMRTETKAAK

[10] = target: 5-hydroxytryptamine receptor 2B (Homo sapiens, UniProt P41595)
5-hydroxytryptamine receptor 2B, sequence (P41595 whole entry): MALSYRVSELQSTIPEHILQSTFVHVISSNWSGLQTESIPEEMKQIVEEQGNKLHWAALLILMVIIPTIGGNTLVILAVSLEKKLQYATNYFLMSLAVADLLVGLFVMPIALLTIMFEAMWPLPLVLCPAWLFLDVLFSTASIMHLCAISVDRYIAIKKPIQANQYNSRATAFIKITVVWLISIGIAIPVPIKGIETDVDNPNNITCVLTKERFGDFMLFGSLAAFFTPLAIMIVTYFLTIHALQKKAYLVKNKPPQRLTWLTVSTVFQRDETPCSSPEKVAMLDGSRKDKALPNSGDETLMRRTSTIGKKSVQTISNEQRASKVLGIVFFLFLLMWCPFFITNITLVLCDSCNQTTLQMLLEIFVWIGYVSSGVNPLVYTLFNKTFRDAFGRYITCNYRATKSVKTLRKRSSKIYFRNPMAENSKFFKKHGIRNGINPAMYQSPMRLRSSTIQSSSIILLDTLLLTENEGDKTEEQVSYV

[11] = target: D(2) dopamine receptor (Homo sapiens, UniProt P14416)
D(2) dopamine receptor, sequence (P14416 whole entry): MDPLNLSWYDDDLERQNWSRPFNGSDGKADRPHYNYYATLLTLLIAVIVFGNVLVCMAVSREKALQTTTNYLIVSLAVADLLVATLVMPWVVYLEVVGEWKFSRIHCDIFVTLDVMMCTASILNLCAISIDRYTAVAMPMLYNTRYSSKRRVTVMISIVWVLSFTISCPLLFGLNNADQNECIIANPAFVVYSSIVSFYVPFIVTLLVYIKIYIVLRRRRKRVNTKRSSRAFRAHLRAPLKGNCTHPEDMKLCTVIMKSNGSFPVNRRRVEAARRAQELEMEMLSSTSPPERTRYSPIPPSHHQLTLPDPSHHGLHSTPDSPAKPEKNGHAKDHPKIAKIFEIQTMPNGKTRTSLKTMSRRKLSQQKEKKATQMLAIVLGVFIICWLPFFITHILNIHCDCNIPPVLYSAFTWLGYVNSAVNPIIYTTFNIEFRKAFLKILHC

[12] = target: Muscarinic acetylcholine receptor M3 (Homo sapiens, UniProt P20309)
Muscarinic acetylcholine receptor M3, sequence (P20309 whole entry): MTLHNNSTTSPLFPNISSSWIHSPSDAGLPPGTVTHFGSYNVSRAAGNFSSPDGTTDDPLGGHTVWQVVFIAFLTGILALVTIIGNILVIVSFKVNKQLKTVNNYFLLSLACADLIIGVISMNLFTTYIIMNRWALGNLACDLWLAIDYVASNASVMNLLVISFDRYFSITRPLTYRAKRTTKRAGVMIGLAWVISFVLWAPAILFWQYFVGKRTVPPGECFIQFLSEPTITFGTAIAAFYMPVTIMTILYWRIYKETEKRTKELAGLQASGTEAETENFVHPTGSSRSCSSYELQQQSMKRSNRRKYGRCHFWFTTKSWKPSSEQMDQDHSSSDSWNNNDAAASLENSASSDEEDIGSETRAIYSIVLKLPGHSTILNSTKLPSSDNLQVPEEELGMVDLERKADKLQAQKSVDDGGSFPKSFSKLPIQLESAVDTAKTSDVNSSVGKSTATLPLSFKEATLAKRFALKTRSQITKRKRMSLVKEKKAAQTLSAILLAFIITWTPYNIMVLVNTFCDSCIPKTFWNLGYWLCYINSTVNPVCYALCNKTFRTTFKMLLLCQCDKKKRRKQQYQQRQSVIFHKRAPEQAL

[13] = target: 5-hydroxytryptamine receptor 6 (Homo sapiens, UniProt P50406)
5-hydroxytryptamine receptor 6, sequence (P50406 whole entry): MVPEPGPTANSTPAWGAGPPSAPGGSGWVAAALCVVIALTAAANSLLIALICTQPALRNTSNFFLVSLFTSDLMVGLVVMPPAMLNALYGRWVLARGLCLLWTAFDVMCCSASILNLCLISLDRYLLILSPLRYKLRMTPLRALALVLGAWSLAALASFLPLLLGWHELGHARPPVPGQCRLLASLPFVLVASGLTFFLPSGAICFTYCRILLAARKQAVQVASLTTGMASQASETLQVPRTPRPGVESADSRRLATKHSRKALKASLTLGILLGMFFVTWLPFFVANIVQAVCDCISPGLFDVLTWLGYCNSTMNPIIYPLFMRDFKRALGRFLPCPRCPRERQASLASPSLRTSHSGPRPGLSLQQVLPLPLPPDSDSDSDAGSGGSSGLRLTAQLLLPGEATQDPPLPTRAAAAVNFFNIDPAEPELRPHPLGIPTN

Ki [1]: 316 nM
Ki [2]: 39.8 nM
Ki [3]: 1580 nM
Ki [4]: 50.1 nM
Ki [5]: 126 nM
Ki [6]: 126 nM
Ki [7]: 398 nM
Ki [8]: 2510 nM
Ki [9]: 251 nM
Ki [10]: 19.9 nM
Ki [11]: 1000 nM
Ki [12]: 39.8 nM
Ki [13]: 1260 nM
SMILES: CCCCCCOc1nsnc1C1=CCCN(C)C1

— BindingDB's records for doi:10.1038/sj.bjp.0702201 (Smithkline Beecham Pharmaceuticals, 1998)
